Columns and labels:
Assay in all cases: biochemical
Set-up in all cases: CEREP ExpresSProfile competition binding, remaining control specific binding of reference compound
Details in all cases: radioligand binding; read-out: Mean % of control specific binding (±sd)
5-HT6 (h) = target: T1, 5-HT6 (h) (Homo sapiens, UniProt P50406)
T1 construct: gene HTR6

ETA (h) = target: T2, ETA (h) (Homo sapiens, UniProt P25101)
T2 construct: gene EDNRA

mu (MOP) (h) = target: T3, mu (MOP) (h) (Homo sapiens, UniProt P35372)
T3 construct: gene OPRM1

5-HT7 (h) = target: T4, 5-HT7 (h) (Homo sapiens, UniProt P34969)
T4 construct: gene HTR7

V1a (h) = target: T5, V1a (h) (Homo sapiens, UniProt P37288)
T5 construct: gene AVPR1A

5-HT3 (h) = target: T6, 5-HT3 (h) (Homo sapiens, UniProt P46098)
T6 construct: gene HTR3A

H1 (h) = target: T7, H1 (h) (Homo sapiens, UniProt P35367)
T7 construct: gene HRH1

Y1 (h) = target: T8, Y1 (h) (Homo sapiens, UniProt P25929)
T8 construct: gene NPY1R

CXCR2 (IL-8B) (h) = CXCR2 (IL-8B) (h) (Homo sapiens, UniProt P25025)
GAL2 (h) = target: T9, GAL2 (h) (Homo sapiens, UniProt O43603)
T9 construct: gene GALR2

[1] = target: T10, norepinephrine transporter (h) (Homo sapiens, UniProt P23975)
T10 construct: gene SLC6A2

EP4 (h) = target: T11, EP4 (h) (Homo sapiens, UniProt P35408)
T11 construct: gene PTGER4
T11 sequence (P35408 whole entry): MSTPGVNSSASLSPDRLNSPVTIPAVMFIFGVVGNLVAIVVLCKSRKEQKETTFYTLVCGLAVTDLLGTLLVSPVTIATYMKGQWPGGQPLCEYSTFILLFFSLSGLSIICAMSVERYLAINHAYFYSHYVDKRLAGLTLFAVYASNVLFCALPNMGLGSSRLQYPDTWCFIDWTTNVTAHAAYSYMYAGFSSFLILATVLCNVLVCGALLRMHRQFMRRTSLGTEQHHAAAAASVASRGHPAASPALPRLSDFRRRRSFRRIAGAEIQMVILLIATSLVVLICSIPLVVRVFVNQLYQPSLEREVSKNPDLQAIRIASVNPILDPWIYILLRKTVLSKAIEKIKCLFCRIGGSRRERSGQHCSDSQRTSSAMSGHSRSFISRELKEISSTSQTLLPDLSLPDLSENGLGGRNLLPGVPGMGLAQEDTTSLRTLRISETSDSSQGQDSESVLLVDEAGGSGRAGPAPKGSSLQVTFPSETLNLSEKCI

T5 sequence (P37288 whole entry): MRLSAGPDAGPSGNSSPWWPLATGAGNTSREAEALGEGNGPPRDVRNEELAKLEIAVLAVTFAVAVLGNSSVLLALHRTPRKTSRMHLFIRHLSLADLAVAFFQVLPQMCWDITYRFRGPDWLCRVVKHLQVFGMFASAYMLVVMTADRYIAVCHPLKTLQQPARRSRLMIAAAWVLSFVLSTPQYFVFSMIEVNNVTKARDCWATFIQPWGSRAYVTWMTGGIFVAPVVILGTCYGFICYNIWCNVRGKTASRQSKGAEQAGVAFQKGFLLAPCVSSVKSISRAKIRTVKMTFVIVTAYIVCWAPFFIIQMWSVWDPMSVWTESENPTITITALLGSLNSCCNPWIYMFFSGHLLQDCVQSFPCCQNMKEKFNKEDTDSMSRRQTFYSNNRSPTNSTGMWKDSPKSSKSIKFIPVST
T7 sequence (P35367 whole entry): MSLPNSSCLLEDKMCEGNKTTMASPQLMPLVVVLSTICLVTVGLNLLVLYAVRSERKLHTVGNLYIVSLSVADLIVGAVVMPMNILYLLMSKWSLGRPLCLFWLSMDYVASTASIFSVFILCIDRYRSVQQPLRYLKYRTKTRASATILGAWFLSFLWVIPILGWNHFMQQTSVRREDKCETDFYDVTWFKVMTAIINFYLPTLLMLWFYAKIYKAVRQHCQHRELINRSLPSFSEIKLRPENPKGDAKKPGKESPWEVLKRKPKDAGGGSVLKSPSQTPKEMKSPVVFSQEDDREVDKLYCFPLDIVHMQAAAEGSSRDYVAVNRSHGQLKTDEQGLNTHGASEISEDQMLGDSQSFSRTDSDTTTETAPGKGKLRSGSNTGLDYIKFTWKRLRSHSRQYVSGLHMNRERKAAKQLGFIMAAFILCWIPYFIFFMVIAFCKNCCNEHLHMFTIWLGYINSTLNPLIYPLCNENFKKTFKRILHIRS
T4 sequence (P34969 whole entry): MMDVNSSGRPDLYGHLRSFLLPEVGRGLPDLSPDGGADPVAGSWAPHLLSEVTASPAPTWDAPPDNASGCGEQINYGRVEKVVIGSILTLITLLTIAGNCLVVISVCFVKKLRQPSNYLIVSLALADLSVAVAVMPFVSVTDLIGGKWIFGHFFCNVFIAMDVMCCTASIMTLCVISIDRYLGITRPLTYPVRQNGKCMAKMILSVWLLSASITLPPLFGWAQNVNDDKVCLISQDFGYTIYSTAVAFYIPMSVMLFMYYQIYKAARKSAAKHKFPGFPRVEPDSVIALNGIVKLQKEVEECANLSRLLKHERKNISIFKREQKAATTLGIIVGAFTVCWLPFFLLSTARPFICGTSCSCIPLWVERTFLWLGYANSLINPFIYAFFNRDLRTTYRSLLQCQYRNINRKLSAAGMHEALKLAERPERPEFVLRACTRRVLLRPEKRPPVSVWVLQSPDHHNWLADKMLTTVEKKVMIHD
T9 sequence (O43603 whole entry): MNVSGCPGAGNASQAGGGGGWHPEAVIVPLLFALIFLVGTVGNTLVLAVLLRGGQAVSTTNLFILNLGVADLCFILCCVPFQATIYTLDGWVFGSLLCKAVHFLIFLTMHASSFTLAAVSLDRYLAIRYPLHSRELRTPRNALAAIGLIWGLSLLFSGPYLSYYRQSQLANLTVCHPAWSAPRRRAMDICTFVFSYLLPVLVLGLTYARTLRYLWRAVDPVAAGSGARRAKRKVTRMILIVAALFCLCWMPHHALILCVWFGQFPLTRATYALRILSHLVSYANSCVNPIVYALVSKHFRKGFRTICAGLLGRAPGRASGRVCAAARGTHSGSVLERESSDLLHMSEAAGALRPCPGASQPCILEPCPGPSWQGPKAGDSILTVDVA
T3 sequence (P35372 whole entry): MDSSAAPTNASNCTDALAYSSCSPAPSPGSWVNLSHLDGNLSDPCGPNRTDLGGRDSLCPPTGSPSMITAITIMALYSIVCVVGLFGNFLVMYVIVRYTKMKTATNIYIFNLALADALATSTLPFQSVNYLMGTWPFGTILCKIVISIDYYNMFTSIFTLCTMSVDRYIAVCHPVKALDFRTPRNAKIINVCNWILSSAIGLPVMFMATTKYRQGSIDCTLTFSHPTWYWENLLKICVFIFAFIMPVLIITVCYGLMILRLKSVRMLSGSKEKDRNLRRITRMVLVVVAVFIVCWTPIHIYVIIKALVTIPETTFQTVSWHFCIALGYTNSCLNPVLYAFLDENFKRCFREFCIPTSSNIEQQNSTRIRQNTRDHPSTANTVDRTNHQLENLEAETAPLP
T8 sequence (P25929 whole entry): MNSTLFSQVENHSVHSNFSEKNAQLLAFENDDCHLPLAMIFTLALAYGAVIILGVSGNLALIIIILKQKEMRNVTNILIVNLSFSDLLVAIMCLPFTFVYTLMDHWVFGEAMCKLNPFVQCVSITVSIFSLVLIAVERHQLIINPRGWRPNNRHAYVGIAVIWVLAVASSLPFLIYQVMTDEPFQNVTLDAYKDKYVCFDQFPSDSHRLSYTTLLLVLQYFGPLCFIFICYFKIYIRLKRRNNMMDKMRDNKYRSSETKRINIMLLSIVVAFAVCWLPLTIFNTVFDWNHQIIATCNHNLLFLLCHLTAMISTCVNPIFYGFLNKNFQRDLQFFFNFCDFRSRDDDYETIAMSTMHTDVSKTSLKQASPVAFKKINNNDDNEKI
T6 sequence (P46098 whole entry): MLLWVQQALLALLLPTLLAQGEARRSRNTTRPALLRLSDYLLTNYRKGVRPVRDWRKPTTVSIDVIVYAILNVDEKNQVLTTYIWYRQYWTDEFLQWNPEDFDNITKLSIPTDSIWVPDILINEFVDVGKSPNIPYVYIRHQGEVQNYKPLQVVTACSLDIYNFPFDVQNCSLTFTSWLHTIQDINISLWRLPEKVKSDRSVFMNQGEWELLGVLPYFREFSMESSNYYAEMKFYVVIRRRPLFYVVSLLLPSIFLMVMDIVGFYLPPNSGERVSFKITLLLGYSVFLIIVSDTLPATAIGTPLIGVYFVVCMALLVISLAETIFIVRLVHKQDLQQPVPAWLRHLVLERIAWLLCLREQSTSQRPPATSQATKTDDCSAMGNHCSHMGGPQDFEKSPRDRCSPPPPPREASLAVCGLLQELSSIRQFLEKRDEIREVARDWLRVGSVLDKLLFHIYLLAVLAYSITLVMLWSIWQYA
T2 sequence (P25101 whole entry): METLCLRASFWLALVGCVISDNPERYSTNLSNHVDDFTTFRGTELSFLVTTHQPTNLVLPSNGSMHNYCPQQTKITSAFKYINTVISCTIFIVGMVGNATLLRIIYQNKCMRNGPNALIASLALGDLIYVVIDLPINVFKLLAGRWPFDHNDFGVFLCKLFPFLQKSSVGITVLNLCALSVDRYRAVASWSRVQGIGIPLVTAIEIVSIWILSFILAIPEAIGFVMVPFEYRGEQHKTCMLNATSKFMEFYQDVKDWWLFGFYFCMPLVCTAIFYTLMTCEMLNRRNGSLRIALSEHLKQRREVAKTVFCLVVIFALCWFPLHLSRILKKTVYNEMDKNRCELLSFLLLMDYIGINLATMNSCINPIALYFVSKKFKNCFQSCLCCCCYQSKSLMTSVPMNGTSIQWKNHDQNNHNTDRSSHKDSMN
T10 sequence (P23975 whole entry): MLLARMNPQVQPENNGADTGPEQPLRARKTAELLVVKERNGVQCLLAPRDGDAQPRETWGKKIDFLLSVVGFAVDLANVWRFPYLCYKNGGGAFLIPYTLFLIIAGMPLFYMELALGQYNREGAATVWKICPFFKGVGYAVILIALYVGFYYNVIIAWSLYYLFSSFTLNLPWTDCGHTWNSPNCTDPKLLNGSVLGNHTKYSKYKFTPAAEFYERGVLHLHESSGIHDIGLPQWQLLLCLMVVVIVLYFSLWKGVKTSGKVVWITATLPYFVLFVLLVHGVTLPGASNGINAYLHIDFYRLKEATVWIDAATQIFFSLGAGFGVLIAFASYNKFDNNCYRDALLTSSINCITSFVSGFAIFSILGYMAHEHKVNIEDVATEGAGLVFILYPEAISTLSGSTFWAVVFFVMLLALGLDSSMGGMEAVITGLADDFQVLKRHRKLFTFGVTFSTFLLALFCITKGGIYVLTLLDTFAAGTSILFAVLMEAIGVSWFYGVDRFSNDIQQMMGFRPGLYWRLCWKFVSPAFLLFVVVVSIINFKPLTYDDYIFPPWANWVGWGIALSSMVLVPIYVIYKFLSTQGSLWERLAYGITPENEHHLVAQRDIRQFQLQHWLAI
CXCR2 (IL-8B) (h), sequence (P25025 whole entry): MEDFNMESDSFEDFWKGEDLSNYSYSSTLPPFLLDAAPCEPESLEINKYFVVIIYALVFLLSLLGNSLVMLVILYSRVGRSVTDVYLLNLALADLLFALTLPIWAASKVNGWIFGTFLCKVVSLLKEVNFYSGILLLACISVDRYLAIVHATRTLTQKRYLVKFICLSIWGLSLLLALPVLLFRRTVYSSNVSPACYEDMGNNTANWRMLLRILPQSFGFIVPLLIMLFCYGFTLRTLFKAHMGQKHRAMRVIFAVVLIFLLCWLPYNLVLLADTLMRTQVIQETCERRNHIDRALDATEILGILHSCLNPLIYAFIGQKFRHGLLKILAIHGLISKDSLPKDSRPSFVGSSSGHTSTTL

Cc1ncsc1-c1ccc(CNC(=O)[C@@H]2C[C@@H](O)CN2C(=O)[C@@H](NC(=O)C2(C#N)CC2)C(C)(C)C)cc1 [VH298]
remaining binding at 50 µM (5-HT6 (h)): 92% | remaining binding at 50 µM (ETA (h)): 88% | remaining binding at 50 µM (mu (MOP) (h)): 106% | remaining binding at 50 µM (5-HT7 (h)): 99% | remaining binding at 50 µM (V1a (h)): 95% | remaining binding at 50 µM (5-HT3 (h)): 92% | remaining binding at 50 µM (H1 (h)): 101% | remaining binding at 50 µM (Y1 (h)): 106% | remaining binding at 50 µM (CXCR2 (IL-8B) (h)): 102% | remaining binding at 50 µM (GAL2 (h)): 87% | remaining binding at 50 µM [1]: 96% | remaining binding at 50 µM (EP4 (h)): 95%

Source: article PMC5097156, “Potent and selective chemical probe of hypoxic signalling downstream of HIF-α hydroxylation via VHL inhibition” (Nature Communications, 2016)
